Test results from PubChem BioAssay (NCI).
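How tested: cells in 96-well plates exposed to compound for 48 hours at five concentrations. At the GI50, growth is halved. TGI: concentration producing complete growth inhibition.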

How the values were obtained:
Assay in all cases: NCI tumour cell line growth inhibition, 48 h
[1] = tested on: DLD-1 colon
[2] = tested on: DMS 114 small cell lung
[3] = tested on: DMS 273 small cell lung
[4] = tested on: HOP-18 NSCLC
[5] = tested on: M19-MEL melanoma
[6] = tested on: XF 498 CNS
[7] = tested on: KM20L2 colon
[8] = tested on: RXF-631 renal
[9] = tested on: MDA-N
[10] = tested on: P388 leukemia
[11] = tested on: P388/ADR leukemia
[12] = tested on: SN12K1 renal

Structure (SMILES) | TGI [1] [µM] | TGI [2] [µM] | TGI [3] [µM] | TGI [4] [µM] | TGI [5] [µM] | TGI [6] [µM] | TGI [7] [µM] | TGI [8] [µM] | TGI [9] [µM] | other results
COC(=O)c1c2c(cc3c1CC1(Cc4cc5c(c(C(C)=O)c4C1)CCC5)C3)CCC2 (stereo unspecified) | > 100 | > 100 | > 100 | > 100 | > 100 | > 100 | – | – | – | –
COc1ccc(CCc2cc(OC)cc(OC)c2)cc1 | > 100 | 24.6 | > 100 | > 100 | > 100 | 83.8 | > 58 | > 72.7 | – | –
c1cncc(CNCc2cccnc2)c1 | – | – | – | – | – | – | – | – | > 100 | –
Cc1cc(N(CCC#N)CCC#N)ccc1N=Nc1ccc(Br)cc1 | > 100 | > 71.3 | > 31.6 | > 100 | > 100 | 13.3 | > 100 | 25.1 | – | –
CC(C)=CCC(OC(=O)C=C(C)C)C1=CC(=O)c2c(O)ccc(O)c2C1=O (stereo unspecified) | 0.674 | 3.03 | 5.53 | 7.58 | 1.87 | 1.74 | 5.64 | – | – | TGI [10]: 2.77 µM; TGI [11]: 19.5 µM; TGI [12]: 2.93 µM
CN1CCc2c1nc(-c1ccc(Cl)cc1)c1c2N(C)CC1 | 82.4 | 34.3 | 32 | – | > 100 | 32.6 | 72.3 | – | – | –
CC1=NN(C(=O)c2ccc(Cl)cc2)C(=O)/C1=C/c1ccccc1O | > 100 | > 100 | – | – | > 100 | > 100 | > 100 | – | – | –
CC(C)OP(=O)(OC(C)C)/C(N)=N/Nc1ccc([N+](=O)[O-])cc1 | > 100 | > 100 | > 100 | – | > 100 | > 100 | > 100 | – | – | –
COC(=O)CC(NC(=O)OCc1ccccc1)C(C(=O)OCc1ccccc1)C(C)(OC)OC (stereo unspecified) | > 100 | 91.7 | > 100 | – | > 100 | 37.3 | > 100 | – | – | –
CC1=Nc2ccccc2/C1=C\c1c(C)[nH]c2ccccc12 | – | – | – | – | – | – | – | – | 37.4 | –
N.N.N.N.N.O=[N+]([O-])[O-].[Co+3].[O-][Cl+3]([O-])([O-])[O-] | > 100 | – | > 100 | – | – | – | > 100 | – | – | GI50 [1]: > 100 µM; GI50 [3]: > 100 µM; GI50 [7]: > 100 µM
CC(C)(C)C(=CS(=O)/N=C/c1ccccc1)C(C)(C)C (stereo unspecified) | > 100 | 82.1 | 92 | – | > 100 | 89.7 | > 100 | > 100 | – | –
O=C1/C(=C/c2ccccc2)CN(C(=O)CCN2CCCC2)C/C1=C\c1ccccc1 | 3.12 | 4.66 | 3.58 | 9.09 | 3.79 | 16.8 | 3.91 | 13.2 | 1.46 | –
CC(=O)OCC(=O)[C@@]12OC(C)(C)O[C@@H]1C[C@H]1[C@@H]3CC(C=O)=C4C=C(OCCCl)CC[C@]4(C)[C@@]3(F)[C@@H](O)C[C@@]12C | > 100 | > 100 | > 100 | 87.6 | > 100 | 35.8 | 38.2 | – | – | –
O=c1ncccn1C1OC(CO)C(O)C1O (stereo unspecified) | > 100 | > 100 | > 100 | > 100 | > 100 | – | > 100 | – | – | –
CC(=O)O[C@]1(C)OC(=O)[C@@H](CC(C)C)N1[N+](=O)[O-] | > 100 | > 100 | > 100 | > 100 | > 100 | – | > 100 | – | – | –
COc1ccc(/C(Cl)=C/c2cc(OC)ccc2OC)cc1 | > 100 | > 100 | > 100 | > 100 | > 100 | > 100 | > 100 | – | – | –
O=c1[nH]c2ccccc2n1CCCN1CCC(n2c(=O)[nH]c3cc(Cl)ccc32)CC1 | – | – | – | – | – | – | – | – | 29.4 | –
C#Cc1c(C)c(/C=C/C(C)=C/C(=O)OC)n(C)c1C | > 100 | > 100 | > 100 | > 100 | > 100 | > 100 | > 100 | – | – | –
O=S(=O)(NCn1ccc2ccccc21)c1ccccc1 | > 100 | – | > 100 | > 100 | > 100 | > 100 | > 100 | > 100 | – | –
CC1CCSC(N(C(=O)N(C)c2ccccc2)c2ccccc2)=N1 (stereo unspecified) | > 100 | > 100 | > 100 | – | > 100 | > 100 | > 100 | – | – | –
NNC(=O)C(=O)N/N=C1\CCC(=O)CC1C(=O)CCC(=O)Nc1ccc(Cl)cc1 (stereo unspecified) | > 100 | – | > 100 | > 100 | > 100 | – | > 100 | – | – | –

Structure (SMILES) | TGI [1] [µM] | TGI [2] [µM] | TGI [3] [µM] | TGI [4] [µM] | TGI [5] [µM] | TGI [6] [µM] | TGI [7] [µM] | TGI [8] [µM] | TGI [9] [µM] | other results
Cc1ccc(N=Nc2c(O)ccc3ccccc23)cc1 | – | – | – | – | – | – | – | – | > 100 | –
C=CCC1=C(C)C[C@@H]2CCC(=O)C=C12 | – | > 100 | > 100 | – | > 100 | – | – | > 100 | – | –
CCOC(=O)N1CCc2cc(OC)c(OC)cc2/C1=C\c1ccc(OC)c(OC)c1 | > 100 | > 100 | 61.9 | 90.7 | 63.3 | > 10 | 65.4 | – | – | –
O=C1CCC(N2C(=O)c3ccccc3C2=O)C(=O)N1 (stereo unspecified) | – | – | – | – | – | – | – | – | > 100 | –
COC(=O)C1C(O)C(C)C(O)C(C)C=C(C)C2=C3C(=C(C)C(=O)c4c(O)c(c(C)c(OC(C)=O)c43)NC(=O)C(C)=C/C=C\C(C)C(O)C(C)C1O)OCO2 (stereo unspecified) | – | – | – | – | – | – | – | – | 31.8 | –
C1CC[N-]CC1.CC(=N\O)/C(C)=N/O.CC(=N\O)/C(C)=N/O.OC1[CH-]CCCC1.[Co+2] | – | – | – | – | – | – | – | – | > 100 | GI50 [9]: 40.9 µM
Cc1c(NC(=S)NC(=O)c2ccc([N+](=O)[O-])cc2)c(=O)n(-c2ccccc2)n1C | > 100 | > 100 | > 100 | > 100 | > 100 | – | > 100 | – | – | –
CCCC(=O)N[C@H]1C2C3CC4C5CC(C42)C1(C)C53 (stereo partly specified) | > 100 | – | > 100 | > 100 | > 100 | – | > 100 | – | – | –
C1CC2CN(CCCN3CCOCC3)C(C1)O2 (stereo unspecified) | – | – | – | – | – | – | – | – | > 100 | –
CN(C)CCSS(=O)(=O)O | – | – | – | – | – | – | – | – | > 100 | –
CC(C)CCCC(C)[C@H]1CCC2[C@@H]3CCC4Nc5c(cnn5-c5ccccc5)C[C@]4(C)C3CC[C@@]21C (stereo partly specified) | > 100 | > 100 | 8.08 | > 100 | > 100 | > 100 | > 100 | 38.4 | – | –
O=C(O)CCNCCCCNCCC(=O)O | > 100 | – | > 100 | > 100 | – | > 100 | > 100 | – | – | –
c1ccc2c(c1)SCCCSCCSCCCS2 | – | – | – | – | – | – | – | – | > 100 | –
c1ccc2c(c1)oc1ccc3nsnc3c12 | > 100 | > 100 | > 100 | > 100 | > 100 | – | > 100 | > 100 | – | –
CC(C)Cc1ccc(C(C)CC2=CCC(CN(C)C)C2=O)cc1 (stereo unspecified) | 5.61 | 10.9 | 14.9 | 32.6 | 13.8 | – | 21.2 | 30.5 | 17.9 | TGI [10]: 6.34 µM; TGI [11]: > 100 µM; TGI [12]: 11.7 µM
CCOC(=O)CCn1ncc(Cl)c(Cl)c1=O | 21.5 | 4.3 | 27 | 11.7 | 8.35 | 37.9 | 31.4 | 7.92 | – | –
COc1cc2c(cc1O)CC1c3c(cc(O)c(OC)c3-2)CCN1C (stereo unspecified) | – | – | – | – | – | – | – | – | > 100 | –
C=CCO/N=C(\OC(=O)c1ccc([N+](=O)[O-])cc1)c1ccccc1 | > 100 | > 100 | > 100 | > 100 | > 100 | – | – | > 100 | – | –
N/N=C1\C(=O)N(c2ccc(Cl)cc2Cl)C(=O)C(=O)C1c1nc2ccccc2o1 (stereo unspecified) | > 100 | > 100 | > 100 | > 100 | > 100 | – | > 100 | > 100 | – | –
Cc1cccc(C)c1NC(=O)CCc1nc(=S)[nH][nH]1 | > 100 | > 100 | – | – | > 100 | > 100 | > 100 | > 100 | – | –
C[C@]12CC[C@H](O)CC1=CC[C@@H]1C2CC[C@]2(C)Nc3c(cnn3-c3ccccc3)CC12 (stereo partly specified) | 35.7 | 15.1 | 3.66 | – | 27.5 | – | 5.8 | 3.82 | – | –
